# Laboratory results published in patent US7034208B1, “Ahas inhibiting herbicide resistant wheat and method for selection thereof” (BASF Aktiengellschaft, priority 1991, dated 2006).
# Experiments:
# [1] = test system: wheat selection FS4 and Fidel; assay: Field Trial II; assay type: in vivo; conditions: resistant selection FS4; postemergent; six weeks after treatment
# [2] = test system: F1 hybrids FS1-FS4 x Fidel and Fidel wheat; assay: Genetic Condition Studies Experiment 1, F1 hybrids sprayed; assay type: in vivo
# Excerpt: Experiment 1: Six flats containing Metro Mix 350™ are planted with F1 hybrids derived from each of the following crosses: FS1×Fidel: FS2×Fidel; FS3×Fidel; FS4×Fidel and Fidel (susceptible, parental cultivar). One week later, the flats are sprayed, one flat per herbicide rate, with PURSUIT™ at 50, 100, 150, 200, and 250 g/ha to determine the genetic condition of the herbicide resistant trait in the selections, FS1-FS4. The herbicide is applied with a laboratory belt sprayer at a rate of 950 L/ha with a belt speed of 12.5 sec/rev using sprayer nozzle #40015E. Tween 20™ is used as the surfactant at 0.25% v/v in the herbicide solutions. Plants are rated 10 days after herbicide treatment.
# [3] = test system: reciprocally crossed and selfed progeny of mutant wheat selections; assay: Genetic Condition Studies Experiment 2, reciprocal crosses and selfed progeny; assay type: in vivo; conditions: 200 g/ha postemergence
# Excerpt: Experiment 2: This experiment continues the evaluation of the mutant wheat selections by examining herbicide resistance in reciprocal crossed and selfed material. Reciprocal crosses are made between M3 plants representing each of the original four mutant selections and between these selections and Fidel. Progeny of these crosses as well as selfed progeny of the plants used in the crosses are planted in 6 inch azalea pots in Metro Mix 350™. Ten pots of each cross are planted with two seeds planted per pot. Ten days later, all of the selfed and reciprocally crossed progeny are sprayed postemergence with PURSUIT™ at 200 g/ha. Herbicide treatment is applied as described in Experiment 1. Plants are thinned to one plant per pot (by removing the weaker of the two plants per pot) one week after herbicide treatment. There is 100% germination of seed from the mutant reciprocal crosses and greater than 90% germination of seed from the selfed mutants.
# [4] = test system: wheat selections FS1-FS4 and Fidel; assay: Field Trial I; assay type: in vivo; conditions: 100 g/ha postemergent, yields 10 weeks after treatment
# Description: A field study is conducted to evaluate the tolerance of the imidazolinone-resistant wheat selections, FS1-FS4, to postemergent applications of imidazolinone herbicides. The variety Fidel, from which these selections are derived, is included as a susceptible check. Because Fidel is a French winter wheat variety and unadapted to New Jersey, this test is intended to evaluate the relative effects of the herbicide treatments on grain yields rather than to measure actual yield potentials for the genotypes. Thus, yields are presented as grams/plot rather than bushels/acre or metric tons/ha.
# M4 bulked seed from parental lines, FS1, FS2, FS3 and FS4 and Fidel wild-type, is used in this field trial. The trial is planted in an incomplete split plot design with the main plot as herbicide-rate combination and the split plot as genotypes. […] The plots are three meters long and 1.5 meters wide (7 rows with 7 inch spacing between rows) with approximately 25 seed planted per row. There is a one meter space between wheat lines and ten meters between replicates.
# Treatments are applied at a rate of 400 L/ha with a tractor mounted sprayer. Tween 20™ is used as a surfactant at 0.25% v/v. Wheat is treated at the Z22 stage or approximately 6 inches tall. Plant height and damage ratings are taken at 3 and 6 weeks after treatment. Yields are taken 10 weeks after treatment.
# [5] = test system: M3 wheat plants from selections FS1-FS4 and Fidel; assay: M3 Plant Screen: In vivo (seed soak/preemergence application screen)
# Description: M3 plants from the four initial plant selections (labelled FS1, FS2, FS3 and FS4) are screened for PURSUIT™ resistance. Five M3 seeds from each mature infloresence of these initial M2 mutants are disinfested in 70% EtOH for 30 seconds followed by disinfestation in 50% solution containing 2.625% sodium hypochlorite (as described above) for 20 minutes under vacuum with gentle agitation provided by a stir plate. The seeds are rinsed two times in sterile distilled water.
# Each set of five seeds is then placed into 10 ml of a 1500 uM solution of PURSUIT™ in a sterile 60×15 mm plastic petri dish and soaked for three days. The seeds are rinsed with water, dried with paper towels and planted approximately ½″ deep in 6×8 inch peat flats containing moist, sterile Metro Mix 350™. These flats are sprayed preemergence with 300 g/ha of PURSUIT™. Controls include M3 seeds from each resistant selection which are disinfested as previously described, soaked in sterile distilled water for three days and then planted. In addition, unselected susceptible Fidel wheat is disinfested as described above and one-half of the seeds treated with PURSUIT™ (seed soak and spray procedure) and the other half are soaked in water alone. The herbicide is applied with a laboratory belt sprayer at a rate of 950 L/ha with a belt speed of 12.5 sec/rev using sprayer nozzle #40015E.
# Four weeks after receiving the initial seed soak, the M3 wheat plants are rated according to whether the plants are herbicide resistant, herbicide damaged or dead. The herbicide resistant plants are transplanted individually to 7.5 inch Azalea pots with Metro Mix 350™. A fertilizer, Osmocote™ (Sierra Company, Milpita, Calif.) is added as a top dressing one week after the plants are transplanted. In addition the plants are fertilized regularly with Peter's 20-20-20™ (Grace Company, Cambridge, Mass.). Individual plants are rated against Fidel untreated controls.
# [6] = test system: mutant wheat selections FS1-FS4 and Fidel; assay type: in vivo; conditions: postemergence
# Excerpt: This greenhouse test examines the level and spectrum of herbicide resistance of the mutant selections at the whole plant level. […] These lines are bulked according to their parental lines: FS1, FS2, FS3 and FS4. Fidel (wild-type) is used is a control and for performance comparison purposes. Five seeds from each of these lines (including Fidel) are planted per pot in six inch Azalea pots and are later thinned to three plants per pot. Three replicates are used per treatment (chemical and rate) for each line, and six replicates per wheat line are used as untreated controls. Plants are sprayed postemergence, 10 days after planting, with the following herbicides and rates: […]
# [7] = test system: wheat variety Fidel and resistant selections FS2 and FS4; assay: Preemergence Herbicide Tolerance; assay type: in vivo; conditions: pre-emergence application; plant growth after four weeks; versus Fidel
# [8] = Control 2 = Susceptible wheat seed (Fidel) soaked in herbicide solution, three weeks
# [9] = FS1 M3, 1500 uM seed soak + 300 g/ha preemergence, three weeks after herbicide treatment
# [10] = FS2 M3, 1500 uM seed soak + 300 g/ha preemergence, three weeks after herbicide treatment
# [11] = FS3 M3, 1500 uM seed soak + 300 g/ha preemergence, three weeks after herbicide treatment
# [12] = FS4 M3, 1500 uM seed soak + 300 g/ha preemergence, three weeks after herbicide treatment
smiles,measurement,setting,value
"CCc1cnc(C2=NC(C)(C(C)C)C(=O)N2)c(C(=O)O)c1 (stereo not drawn) [PURSUIT, 5-ethyl-2-(4-isopropyl-4-methyl-5-oxo-2-imidazolin-2-yl)-nicotinic acid]",effect on final plant height,[1],no effect
same,rate at which Fidel is killed,"[2]; Fidel, rated 10 days after treatment",150 g/ha
same,damage to Fidel,"[2]; Fidel, rates of 50 and 100 g/ha",severely injured
same,damage to F1 hybrids,"[2]; hybrids FS1-FS4 x Fidel, 250 g/ha, rated 10 days after treatment",stunted but not killed
same,damage to mutant crosses,[3],None of the mutant crosses is damaged
same,yield reduction,[4],35%
same,No. of Plants (number of plants raised/number of seeds planted),[5]; Control 2 = Susceptible wheat seed (Fidel) soaked in herbicide solution,13/15
same,Ave. Shoot Height,[5]; [8],21.2 cm
same,Range Shoot Heights,[5]; [8],8-30 cm
same,No. of Plants (number of plants raised/number of seeds planted),"[5]; FS1 M3, 1500 uM seed soak + 300 g/ha preemergence",48/80
same,Ave. Shoot Height,[5]; [9],9.1 cm
same,Range Shoot Heights,[5]; [9],2-15 cm
same,germination frequency,"[5]; FS1 M3 seed, 1500 uM seed soak + 300 g/ha preemergence",60%
same,No. of Plants (number of plants raised/number of seeds planted),"[5]; FS2 M3, 1500 uM seed soak + 300 g/ha preemergence",36/80
same,Ave. Shoot Height,[5]; [10],11.7 cm
same,Range Shoot Heights,[5]; [10],5-18 cm
same,germination frequency,"[5]; FS2 M3 seed, 1500 uM seed soak + 300 g/ha preemergence",47.5%
same,No. of Plants (number of plants raised/number of seeds planted),"[5]; FS3 M3, 1500 uM seed soak + 300 g/ha preemergence",35/85
same,Ave. Shoot Height,[5]; [11],8.0 cm
same,Range Shoot Heights,[5]; [11],1-14.5 cm
same,germination frequency,"[5]; FS3 M3 seed, 1500 uM seed soak + 300 g/ha preemergence",41.2%
same,No. of Plants (number of plants raised/number of seeds planted),"[5]; FS4 M3, 1500 uM seed soak + 300 g/ha preemergence",44/85
same,Ave. Shoot Height,[5]; [12],21.1 cm
same,Range Shoot Heights,[5]; [12],5-28 cm
same,germination frequency,"[5]; FS4 M3 seed, 1500 uM seed soak + 300 g/ha preemergence",55%
same,survival,"[5]; non-mutagenized, non-selected Fidel seed, 1500 uM seed soak and 300 g/ha preemergent",does not survive
same,herbicide symptoms,"[5]; some M3 seedlings, progeny of FS4, 1500 uM seed soak + 300 g/ha preemergence","stunting, twisting and/or chlorotic striping"
same,rate to which the mutant wheat is resistant,"[6]; mutant wheat FS1-FS4, plant growth four weeks after treatment",more than 320 g/ha
same,increased tolerance of mutant wheat,"[6]; mutant wheat FS1-FS4 versus Fidel, four weeks after treatment",~8 fold
same,increased tolerance of FS2 and FS4,[7],approximately 8 fold
